Results published in patent US20240011976A1, “ADDITIVES FOR REDUCING NON-SPECIFIC INTERACTIONS BETWEEN FLUORESCENT POLYMER CONJUGATES AND CELLS IN A BIOLOGICAL SAMPLE” (Beckman Coulter, Inc., priority 2008, published 2024).
Entries after “also recorded” stand apart in the source; their conditions may differ.

Tests used:
granulocytes/monocytes = experiment: Protein blockers, non-specific interactions of SN v605-CD20 conjugate with granulocytes/monocytes; assay type: cell-based
Excerpt: The issue of non-specific interaction on monocytes was also observed with conventional tandem dyes (e.g., PC5, PC5.5, PC7, AA700 available from Beckman Coulter, Inc.). To overcome this issue, it was thought that BSA-ox (oxidized BSA) and BSA-Cy5-ox (oxidized Cy5-BSA), which are known protein blockers, might prevent non-specific binding.

monocytes [1] = experiment: Anionic surfactant NLS, non-specific staining of CD20-SN v605 on monocytes, peripheral blood flow cytometry; assay type: cell-based; settings: CD20-SN v605, buffer with BSA, sodium azide and Empigen BB, FIG. 17B
Method: (§1) In this example, different concentrations (0.16%, 0.08%, 0.04% and 0.02% w/v) of NLS was formulated with SN v605 CD20 conjugate in the presence of BSA and sodium azide and stained peripheral blood samples. Flow cytometry was performed following sample staining.

[2] = 20-25° C.; cited from earlier work
[3] = Empigen BB concentration in conjugate formulation and during staining versus CMC; assay type: physicochemical
Method: The micellar concentration was studied in samples and during the staining to be sure not to exceed critical micellar concentration (CMC). […] CMC was studied in the conjugate formulation and during the staining in 100 μL whole blood. Experiments were conducted to evaluate the impact of addition of EMPIGEN BB® on whole blood cell integrity and also on peripheral blood mononuclear cells (PMBCs).

monocytes/granulocytes = experiment: Blood sample stained with unconjugated polymer dye SN v605 with and without Empigen BB, flow cytometry; assay type: cell-based; settings: SN v605 without antibody, with EMPIGEN BB, FIG. 2
Excerpt: A blood sample was stained with unconjugated polymer dye SN v605 (without antibody), with and without Empigen BB®, and analyzed in a flow cytometer. […] In FIG. 2, the fluorescent polymer dye SN v605 without antibody was used to stain a blood sample and analyzed in a flow cytometer. […] While not wishing to be bound by any specific theory, it is thought that the polymer is likely adsorbing on the cell surface of monocytes and granulocytes.

granulocytes [4] = experiment: Anionic surfactant NLS, non-specific staining of CD20-SN v605 on granulocytes, peripheral blood flow cytometry; assay type: cell-based; settings: CD20-SN v605, buffer with BSA, sodium azide and NLS, FIG. 17B
Method: as §1

positive lymphocytes = experiment: Positive lymphocyte signal of SN 428 conjugates with EMPIGEN BB, whole blood flow cytometry; assay type: cell-based; settings: compared to the condition without EMPIGEN
Method: (§2) The efficiency of zwitterionic surfactant EMPIGEN BB® on the reduction of non-specific binding with monocytes was evaluated. Other populations were also studied, namely lymphocytes and granulocytes, to evaluate the non-impact of the detergent on MFI and percentage of cells.
(§3) The experimental conditions were generally as follows: • CD19-SN 428 (lot D19-094, polymer lot RDS-042919 (82.7 kD), 1 dose (0.5 μg/test). • CD22-SN 428 (lot D19-109, polymer lot WX-20190624 (86.4 kD), 1 dose (0.5 μg/test). • CD25-SN 428 (lot D19-107, polymer lot RDS-062419 (72.8 kD), 1 dose (0.5 μg/test). • CD19, CD22 and CD25-BV 421 from Becton Dickinson at 1× commercial dose. • Three doses of EMPIGEN BB®0.06%, 0.12%, and 0.2% prepared in conjugate final formulation. • Added 10 μL sample with 100 μL whole blood. • Tested on 2 donors lysing with VersaLyse (lysing solution, used to lyse red blood cells, Beckman Coulter, Inc.)+Fix, one wash. • Navios flow cytometer acquisition on FL9.
(§4) The required x number of tubes were prepared, wherein “x number of tubes” depends on the performance tested. A calculated volume of conjugated antibody (at required dose) was added to each tube. Whole blood (100 μL) was added in each tube. The tubes were gently vortexed for 15 seconds and incubated for 15 to 20 minutes at room temperature at 18-25° C. and protected from light. […]

whole blood cells = experiment: 7-AAD staining, percentage of dead cells in whole blood; assay type: cell-based; settings: up to 0.2% EMPIGEN BB with CD19-SNv428, 7-AAD
Method: The percentage of dead cells in whole blood sample with the 7-AAD was evaluated. 7-AAD is a DNA marker, the staining is positive when the cellular membrane is permeabilized. CD19-SNv428 D19-094 without EMPIGEN BB®@(negative control) and with 0.06%, 0.12%, and 0.2% EMPIGEN BB®, was tested on four donors' whole blood, with the 7-ADD, to evaluate the percentage of dead cells in each condition. The goal of the experiment was to verify if the percentage of dead cells is not increased by the EMPIGEN BB® concentration.
Two whole blood samples that had been preserved for greater than 24 hours were added as positive control of 7-AAD staining.
Protocol for 7-AAD staining: • 100 μl whole blood+10 μl CD19-SNv428+/−Empigen, incubation 20 minutes. • Lyse with Versalyse, one wash, • Resuspension in 500 μl PBS 1× • Add 20 μl of 7-AAD (Ref B88526), incubation 15-20 minutes • Navios flow cytometer acquisition: FL4 for 7-AAD and FL9 for CD19-SNv428

granulocytes [5] = experiment: Non-specific binding of SN 605-CD20 and SN 786-CD103 conjugate lots to granulocytes with and without EMPIGEN BB (MdFI, dot plots); assay type: cell-based; settings: with vs without surfactant (EMPIGEN BB), FIG. 3 and FIG. 6
Method: In order to confirm the effect of EMPIGEN BB®, two lots of SN 605-CD20 conjugates were tested in the presence and absence of EMPIGEN BB®. The mean fluorescence intensity (MFI) was compared to the autofluorescence (negative population median fluorescence intensity (MdFI)) of the monocytes from the unstained sample.
Two lots of SN 786-CD103 conjugates were tested in presence and absence of EMPIGEN BB® and the autofluorescence (negative population MdFI) of the monocyte and granulocyte population is compared against an unstained sample.

monocytes [6] = experiment: Monocyte background (non-specific binding) of SN 428 conjugates with EMPIGEN BB, whole blood flow cytometry; assay type: cell-based; settings: 0.06 to 0.20% Empigen BB vs absence of surfactant, FIG. 11
Method: as §2, §3, §4

Molecule | percentage of non-specifically bound monocytes and granulocytes / controlling non-specific interactions (granulocytes/monocytes; FIG. 10) | percentage of non-specifically bound monocytes and granulocytes / controlling non-specific interactions (granulocytes/monocytes; FIG. 10, listed as oxidized BSA) | % population in the gate Mons Non-specific binding (monocytes [1]) [%] | CMC [2] [mM] | concentration relative to CMC, formulation in the vial ([3]; 0.2% in the vial) | Empigen BB concentration, formulation in the vial ([3]; 0.2%, 2 g/L, 279 g/mol) [mM] | concentration relative to CMC during the staining ([3]; 100 μL WB, 10 μl conjugate) | Empigen BB concentration during the staining ([3]; 100 μL WB, 10 μl conjugate, dilution factor 11) [mM] | non-specific binding of polymer dye to monocytes/granulocytes (monocytes/granulocytes) | % population in the gate Grans Non-specific binding (granulocytes [4]) [%] | variation of the positive signal on lymphocytes (positive lymphocytes) | percentage of dead cells / whole blood cell death (whole blood cells) | percentage of non-specifically bound granulocytes (dot plot gate) (granulocytes [5]) | non-specific monocyte interactions (negative monocyte MFI) (monocytes [6])
BSA-ox: oxidized BSA, known protein blocker | inefficient | not substantially reduced |  |  |  |  |  |  |  |  |  |  |  | 
BSA-Cy5-ox: oxidized Cy5-BSA, known protein blocker | inefficient; also recorded: not substantially reduced |  |  |  |  |  |  |  |  |  |  |  |  | 
CCCCCCCCCCCC[N+](C)(C)CC(=O)[O-] [EMPIGEN BB®, N,N-dimethyl-N-dodecylglycine betaine] |  |  | 0.64 | 1.6 to 2.1 | > CMC within the conjugate formulation | 7.2 | < CMC during the staining | 0.65 | substantially reduced; also recorded: reduced drastically; also recorded: substantial decrease | 0.68 | did not induce a significant variation | does not induce whole blood cell permeabilization or death; also recorded: didn't induce whole blood cell death; also recorded: not substantially increased | reduced | lower percent of non-specific monocyte interactions
